Reference: patent US7192906B2, “Substituted pyrazole derivatives, production process thereof, and herbicide compositions containing the derivatives” (SDS Biotech K.K., priority 2001, dated 2007)

test system: wheat (Triticum aestivum); test: Test Example 1 upland field foliage treatment, crop phytotoxicity; format: in vivo; conditions: Table 4, upland field foliage treatment, index 0-5
Outline: (§1)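 Scored 0–5 (0: under 10%, 5: 90% or more effect or phytotoxicity) on day 21 after treatment; plants sown in upland soil received a leaf-surface spray 14 days post-sowing of diluted wettable powder delivering 1 kg active ingredient/ha.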

SMILES | Herbicidal activity (phytotoxicity) TA: Wheat (Triticum aestivum)
CON=C(Cn1cc(C)c(-c2ccccc2)n1)C(=O)NCC#N [Compound 33] | 0 (herbicidal effect of not less than 0% and less than 10%, or phytotoxicity of 0% or more and less than 10%)
CON=C(Cn1cc(C)c(-c2ccccc2)n1)C(=O)NCC(F)(F)F [Compound 34] | 0 (herbicidal effect of not less than 0% and less than 10%, or phytotoxicity of 0% or more and less than 10%)

test system: soybean (Glycine max); test: as above; format: in vivo; conditions: Table 4, upland field foliage treatment, index 0-5
Outline: as §1

SMILES | Herbicidal activity (phytotoxicity) GM: Soybean (Glycine max)
CON=C(Cn1cc(C)c(-c2ccccc2)n1)C(=O)NCC#N [Compound 33] | 0 (herbicidal effect of not less than 0% and less than 10%, or phytotoxicity of 0% or more and less than 10%)
CON=C(Cn1cc(C)c(-c2ccccc2)n1)C(=O)NCC(F)(F)F [Compound 34] | 0 (herbicidal effect of not less than 0% and less than 10%, or phytotoxicity of 0% or more and less than 10%)

test system: Digitaria adscendens; test: Test Example 1 upland field foliage treatment; format: in vivo; conditions: Table 4, upland field foliage treatment, index 0-5
Outline: as §1

SMILES | Herbicidal activity DA: Digitaria adscendens
CON=C(Cn1cc(C)c(-c2ccccc2)n1)C(=O)NCC#N [Compound 33] | 5 (herbicidal effect of not less than 90%, or phytotoxicity of 90% or more)
CON=C(Cn1cc(C)c(-c2ccccc2)n1)C(=O)NCC(F)(F)F [Compound 34] | 5 (herbicidal effect of not less than 90%, or phytotoxicity of 90% or more)

test system: Chenopodium album; test: Test Example 1 upland field foliage treatment; format: in vivo; conditions: Table 4, upland field foliage treatment, index 0-5
Outline: as §1

SMILES | Herbicidal activity CA: Chenopodium album
CON=C(Cn1cc(C)c(-c2ccccc2)n1)C(=O)NCC#N [Compound 33] | 4 (herbicidal effect of not less than 70% and less than 90%, or phytotoxicity of 70% or more and less than 90%)
CON=C(Cn1cc(C)c(-c2ccccc2)n1)C(=O)NCC(F)(F)F [Compound 34] | 4 (herbicidal effect of not less than 70% and less than 90%, or phytotoxicity of 70% or more and less than 90%)

test system: Setaria viridis; test: Test Example 1 upland field foliage treatment; format: in vivo; conditions: Table 4, upland field foliage treatment, index 0-5
Outline: as §1

SMILES | Herbicidal activity SV: Setaria viridis
CON=C(Cn1cc(C)c(-c2ccccc2)n1)C(=O)NCC#N [Compound 33] | 4 (herbicidal effect of not less than 70% and less than 90%, or phytotoxicity of 70% or more and less than 90%)
CON=C(Cn1cc(C)c(-c2ccccc2)n1)C(=O)NCC(F)(F)F [Compound 34] | 4 (herbicidal effect of not less than 70% and less than 90%, or phytotoxicity of 70% or more and less than 90%)

test system: Stellaria media; test: Test Example 1 upland field foliage treatment; format: in vivo; conditions: Table 4, upland field foliage treatment, index 0-5
Outline: as §1

SMILES | Herbicidal activity SM: Stellaria media
CON=C(Cn1cc(C)c(-c2ccccc2)n1)C(=O)NCC#N [Compound 33] | 4 (herbicidal effect of not less than 70% and less than 90%, or phytotoxicity of 70% or more and less than 90%)
CON=C(Cn1cc(C)c(-c2ccccc2)n1)C(=O)NCC(F)(F)F [Compound 34] | 4 (herbicidal effect of not less than 70% and less than 90%, or phytotoxicity of 70% or more and less than 90%)

test system: Rice (Oryza sativa); test: Test Example 3 paddy field treatment, crop phytotoxicity; format: in vivo; conditions: paddy field treatment, transplanted rice Koshihikari, wettable powder, active ingredient 1 kg per hectare, 21st day after the dropping, index 0-5
Outline: (§2)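 Scoring used a 0–5 scale of herbicidal effect or phytotoxicity, from <10% to ≥90%, taken 21 days after treatment. Treatment was 1 kg a.i./ha as diluted wettable powder dripped onto 4 cm-deep flooded pots sown with the weeds, 10 days after transplanting two-leaf Koshihikari rice.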

SMILES | Herbicidal activity OS (phytotoxicity to rice)
CON=C(Cn1cc(C)c(-c2ccccc2)n1)C(=O)NCC#N [Compound 33] | 0 (herbicidal effect of not less than 0% and less than 10%, or phytotoxicity of 0% or more and less than 10%)
CON=C(Cn1cc(C)c(-c2ccccc2)n1)C(=O)NCC(F)(F)F [Compound 34] | 1 (herbicidal effect of not less than 10% and less than 30%, or phytotoxicity of 10% or more and less than 30%)

test system: wheat (Triticum aestivum); test: Test Example 2 upland soil treatment, crop phytotoxicity; format: in vivo; conditions: Table 5, upland soil treatment, index 0-5
Outline: (§3)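 Pre-emergence soil treatment: seeds sown in upland soil in pots and covered with about 1 cm soil. Next day, a water-diluted wettable powder was sprayed evenly on the soil surface at 1 kg active ingredient per hectare. Weed control or crop injury was scored 0–5 (10% to ≥90% bands) 21 days later.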

SMILES | Herbicidal activity (phytotoxicity) TA: Wheat (Triticum aestivum)
CON=C(Cn1cc(C)c(-c2ccccc2)n1)C(=O)NCC#N [Compound 33] | 0 (herbicidal effect of not less than 0% and less than 10%, or phytotoxicity of 0% or more and less than 10%)
CON=C(Cn1cc(C)c(-c2ccccc2)n1)C(=O)NCC(F)(F)F [Compound 34] | 0 (herbicidal effect of not less than 0% and less than 10%, or phytotoxicity of 0% or more and less than 10%)

test system: soybean (Glycine max); test: as above; format: in vivo; conditions: Table 5, upland soil treatment, index 0-5
Outline: as §3

SMILES | Herbicidal activity (phytotoxicity) GM: Soybean (Glycine max)
CON=C(Cn1cc(C)c(-c2ccccc2)n1)C(=O)NCC#N [Compound 33] | 0 (herbicidal effect of not less than 0% and less than 10%, or phytotoxicity of 0% or more and less than 10%)
CON=C(Cn1cc(C)c(-c2ccccc2)n1)C(=O)NCC(F)(F)F [Compound 34] | 0 (herbicidal effect of not less than 0% and less than 10%, or phytotoxicity of 0% or more and less than 10%)

test system: Scirpus juncoides; test: Test Example 3 paddy field treatment; format: in vivo; conditions: paddy field treatment, wettable powder, active ingredient 1 kg per hectare, 21st day after the dropping, index 0-5
Outline: as §2

SMILES | Herbicidal activity SJ
CON=C(Cn1cc(C)c(-c2ccccc2)n1)C(=O)NCC#N [Compound 33] | 4 (herbicidal effect of not less than 70% and less than 90%, or phytotoxicity of 70% or more and less than 90%)
CON=C(Cn1cc(C)c(-c2ccccc2)n1)C(=O)NCC(F)(F)F [Compound 34] | 5 (herbicidal effect of not less than 90%, or phytotoxicity of 90% or more)

test system: Monochoria vaginalis; test: Test Example 3 paddy field treatment; format: in vivo; conditions: paddy field treatment, wettable powder, active ingredient 1 kg per hectare, 21st day after the dropping, index 0-5
Outline: as §2

SMILES | Herbicidal activity MV
CON=C(Cn1cc(C)c(-c2ccccc2)n1)C(=O)NCC#N [Compound 33] | 5 (herbicidal effect of not less than 90%, or phytotoxicity of 90% or more)
CON=C(Cn1cc(C)c(-c2ccccc2)n1)C(=O)NCC(F)(F)F [Compound 34] | 5 (herbicidal effect of not less than 90%, or phytotoxicity of 90% or more)

test system: Echinochloa crusgalli; test: Test Example 3 paddy field treatment; format: in vivo; conditions: paddy field treatment, wettable powder, active ingredient 1 kg per hectare, 21st day after the dropping, index 0-5
Outline: as §2

SMILES | Herbicidal activity EC
CON=C(Cn1cc(C)c(-c2ccccc2)n1)C(=O)NCC#N [Compound 33] | 5 (herbicidal effect of not less than 90%, or phytotoxicity of 90% or more)
CON=C(Cn1cc(C)c(-c2ccccc2)n1)C(=O)NCC(F)(F)F [Compound 34] | 5 (herbicidal effect of not less than 90%, or phytotoxicity of 90% or more)

test system: Ammannia multiflora; test: Test Example 3 paddy field treatment; format: in vivo; conditions: paddy field treatment, wettable powder, active ingredient 1 kg per hectare, 21st day after the dropping, index 0-5
Outline: as §2

SMILES | Herbicidal activity AM
CON=C(Cn1cc(C)c(-c2ccccc2)n1)C(=O)NCC#N [Compound 33] | 5 (herbicidal effect of not less than 90%, or phytotoxicity of 90% or more)
CON=C(Cn1cc(C)c(-c2ccccc2)n1)C(=O)NCC(F)(F)F [Compound 34] | 5 (herbicidal effect of not less than 90%, or phytotoxicity of 90% or more)

test system: Digitaria adscendens; test: Test Example 2 upland soil treatment; format: in vivo; conditions: Table 5, upland soil treatment, index 0-5
Outline: as §3

SMILES | Herbicidal activity DA: Digitaria adscendens
CON=C(Cn1cc(C)c(-c2ccccc2)n1)C(=O)NCC#N [Compound 33] | 5 (herbicidal effect of not less than 90%, or phytotoxicity of 90% or more)
CON=C(Cn1cc(C)c(-c2ccccc2)n1)C(=O)NCC(F)(F)F [Compound 34] | 5 (herbicidal effect of not less than 90%, or phytotoxicity of 90% or more)

test system: Chenopodium album; test: Test Example 2 upland soil treatment; format: in vivo; conditions: Table 5, upland soil treatment, index 0-5
Outline: as §3

SMILES | Herbicidal activity CA: Chenopodium album
CON=C(Cn1cc(C)c(-c2ccccc2)n1)C(=O)NCC#N [Compound 33] | 5 (herbicidal effect of not less than 90%, or phytotoxicity of 90% or more)
CON=C(Cn1cc(C)c(-c2ccccc2)n1)C(=O)NCC(F)(F)F [Compound 34] | 5 (herbicidal effect of not less than 90%, or phytotoxicity of 90% or more)

test system: Setaria viridis; test: Test Example 2 upland soil treatment; format: in vivo; conditions: Table 5, upland soil treatment, index 0-5
Outline: as §3

SMILES | Herbicidal activity SV: Setaria viridis
CON=C(Cn1cc(C)c(-c2ccccc2)n1)C(=O)NCC#N [Compound 33] | 4 (herbicidal effect of not less than 70% and less than 90%, or phytotoxicity of 70% or more and less than 90%)
CON=C(Cn1cc(C)c(-c2ccccc2)n1)C(=O)NCC(F)(F)F [Compound 34] | 4 (herbicidal effect of not less than 70% and less than 90%, or phytotoxicity of 70% or more and less than 90%)

test system: Stellaria media; test: Test Example 2 upland soil treatment; format: in vivo; conditions: Table 5, upland soil treatment, index 0-5
Outline: as §3

SMILES | Herbicidal activity SM: Stellaria media
CON=C(Cn1cc(C)c(-c2ccccc2)n1)C(=O)NCC#N [Compound 33] | 5 (herbicidal effect of not less than 90%, or phytotoxicity of 90% or more)
CON=C(Cn1cc(C)c(-c2ccccc2)n1)C(=O)NCC(F)(F)F [Compound 34] | 5 (herbicidal effect of not less than 90%, or phytotoxicity of 90% or more)
